Data on two molecules can be found in PMC8400257, “2-Phenoxy-3-Trichloromethylquinoxalines Are Antiplasmodial Derivatives with Activity against the Apicoplast of Plasmodium falciparum” (Pharmaceuticals, 2021).

The test system of series [1] is P. falciparum ART-sensitive strain F32-TEM. The experiment in a line: Standard in vitro chemo-sensitivity assay, F32-TEM. The series is classed as cell-based. To be noted: Plasmodium falciparum, F32, 48 h, read-out: Mean ± SEM EC50 values F32-TEM. The method, then:
(§1) The Plasmodium falciparum ART-resistant strain F32-ART5 and its tween ART-sensitive strain F32-TEM [33, 41] were cultivated at 37 °C with 5% CO2 in human red blood cells (EFS, French Blood Bank) diluted to 2% hematocrit in RPMI-1640 medium (Biowest, Nuaillé, France) supplemented with 5% human serum (EFS, French Blood Bank), as previously reported.
(§2) The chemosensitivity assay was carried out in 96-well culture plates on synchronized ring-stage parasites at 1% parasitemia obtained after D-sorbitol treatment. The antiplasmodial activities were evaluated using the SYBR Green I method. Parasites were exposed for 48 h to a range of concentrations of the different tested compounds. Each drug concentration was tested in triplicates. Parasite pellets were then washed in 1× PBS prior to lysing red blood cells at −20 °C overnight. Then, the plates were thawed and 100 µL of each well were transferred into a black 96-well plate. Next, 100 µL per well of SYBR Green I (Thermo Fisher) diluted at a final concentration of 2× in lysis buffer (20 mM Tris base pH 7.5, 5 mM EDTA, 0.008% w/v saponin, 0.08% w/v Triton X-100) were added and left to incubate for 1 h at room temperature prior to reading the plates on BioTek FLx800 Microplate Fluorescence Reader (λexcitation = 485 nm, λemission = 528 nm). Relative EC50 values were determined using GraphPad Prism software.

In series [2] the test system is P. falciparum ART-resistant strain F32-ART5. Description: Standard in vitro chemo-sensitivity assay, F32-ART5. The series is classed as cell-based. To be noted: Plasmodium falciparum, F32, 48 h, read-out: Mean ± SEM EC50 values F32-ART5. The method, then: as §1, §2
Series [3] deals with F32-ART5 and F32-TEM parasites. The experiment in a line: Recrudescence assay. To be noted: 48 h exposure; 2.5 µM 3i or 18 µM ART; log-rank Mantel-Cox test. The series is classed as cell-based, Plasmodium falciparum. The method, then: Recrudescence assay was performed to evaluate the ability of the F32-ART5 parasites to survive drug exposure comparatively to the F32-TEM parasites. D-sorbitol synchronized ring-stages at 3% parasitemia (2% hematocrit) were exposed to drug for 48 h. After drug exposure, parasite cultures were washed with RPMI-1640 medium and replaced in normal drug-free culture conditions. The time to parasite recrudescence was determined as the time required to reach the 3% initial parasitemia. […] Each experiment was performed for F32-ART5 and F32-TEM and cultivated in parallel in the same conditions to generate paired results. This was carried out at least three times independently. A statistical analysis (log-rank Mantel–Cox test) was carried out on data thanks to a Kaplan–Meier survival analysis (using GraphPad Prism software) considering censored data.
Figure S48. 13C NMR spectrum of 2i in CDCl3, on a Bruker ARX 101 spectrometer
2. […]
3. Studying the effect of (3i) on the liver stage development of P. falciparum Cryopreserved primary human hepatocytes were seeded in 96 well plates with a pre-determined seeding dose that gave a single dense layer of attached hepatocytes. […]
The culture medium with or without drugs was refreshed every 48 hours and two independent plates were studied. […] Plates were subjected to quantification using an automated plate scanner. […]

Series [4] relates to Pf3D7 (3D7 chloroquine-sensitive strain). To be noted: Figure 2; cited from earlier work.
The subject of series [5] is PfFCR-3 (FCR-3 multidrug-resistant strain). Set-up: method as in PMID 28291694. To be noted: Figure 2; cited from earlier work.
Another series relates to HepG2. To be noted: Figure 2; cited from earlier work.

For the molecule `C[C@@H]1CC[C@H]2[C@@H](C)C(=O)O[C@@H]3O[C@@]4(C)CC[C@@H]1[C@]32OO4` [Artemisinin, reference compound], the EC50 in series [1] was 19 ± 3 nM; in series [2], 11 ± 3 nM. Further, the “Recrudescence of F32-ART5 compared with F32-TEM after drug exposure” value in series [3] is listed as “significant faster”.
`Cc1c(/C=N/Nc2ccnc3cc(Cl)ccc23)[n+]([O-])c2cc(Cl)ccc2[n+]1[O-]` [QdNO 19]: the EC50 in series [4] is 240 nM; in series [5], 2800 nM. Further, the CC50 in the series with HepG2 is more than 241000 nM.

For orientation: EC50 means the concentration needed to bring the measured effect to its halfway point.
